Assay results reported in US20060057696A1, “Sugar chain synthases” (priority 2002, published 2006).
Marks after values point to notes of the source that are not given here.

Legend:
Type in all cases: biochemical
[1] = target: T1, PA-mST8Sia VI (mouse ST8Sia VI) (Mus musculus, UniProt Q8K4T1); assay: Sialyltransferase activity of PA-mST8Sia VI toward acceptor substrates; conditions: incorporation with Fetuin taken as 100, substrate 0.5 mg/ml glycolipids, 1 mg/ml glycoproteins, monosaccharides and oligosaccharides
T1 construct: amino acids 26-398 in the case of mouse ST8Sia VI; signal peptide of mouse immunoglobulin IgM (N); made in house; host or cells: COS-7 cells, transient expression of pcDSA-mST8Sia VI; protein recovered from medium on IgG-Sepharose
T1 sequence (Q8K4T1 26-398): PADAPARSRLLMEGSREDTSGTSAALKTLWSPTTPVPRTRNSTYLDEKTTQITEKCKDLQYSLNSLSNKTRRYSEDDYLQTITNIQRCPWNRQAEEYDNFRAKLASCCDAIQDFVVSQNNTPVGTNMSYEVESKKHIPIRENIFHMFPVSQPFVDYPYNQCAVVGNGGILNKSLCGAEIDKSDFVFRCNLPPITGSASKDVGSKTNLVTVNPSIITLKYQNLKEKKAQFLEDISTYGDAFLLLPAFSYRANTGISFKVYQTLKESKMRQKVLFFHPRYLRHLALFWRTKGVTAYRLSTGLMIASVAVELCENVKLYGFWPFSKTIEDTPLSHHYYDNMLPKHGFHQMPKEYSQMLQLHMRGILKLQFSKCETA
Method: (§1) Using each expression vector and lipofectamine (Invitrogen), transient expression was carried out in COS-7 cells (Kojima, N. et al. (1995) FEBS Lett. 360, 1-4). The proteins of the present invention secreted from the cells into which each expression vector had been introduced were named as PA-mST8Sia VI (mouse) and PA-hST8Sia VI (human). PA-mST8Sia VI and PA-hST8Sia VI were adsorbed to IgG-Sepharose (Amersham Pharmacia Biotech), and were then recovered from medium. Sialyltransferase activity was measured as follows according to the method of Lee et al. (Lee, Y.-C. et al. (1999) J. Biol. Chem. 274, 11958-11967). A reaction solution (10 μl) containing 50 mM MES buffer (pH 6.0), 1 mM MgCl2, 1 mM CaCl2, 0.5% Triton CF-54, 100 μM CMP-[^14C]-NeuAc, a glycoconjugate (which was added at 0.5 mg/ml in the case of glycolipids, and at 1 mg/ml in the case of glycoproteins or oligosaccharides), and a PA-mST8Sia VI or PA-hST8Sia VI suspension, was incubated at 37° C. for 3 to 20 hours. Thereafter, in the case of glycolipids, the reaction product was purified with a C-18 column (Sep-Pak Vac 100 mg; Waters) and the purified product was used as a sample, and in the case of oligosaccharides or glycoproteins, the reaction product was directly used as a sample. Thus, the obtained samples were subjected to analysis. In the case of oligosaccharides or glycolipids, the sample was spotted on a silica gel 60 HPTLC plate (Merck), and was then developed with a developing solvent consisting of ethanol:pyridine:n-butanol:water:acetic acid=100:10:10:30:3 (for oligosaccharides), a developing solvent consisting of 1-propanol:ammonia water:water=6:1:2.5 (for oligosaccharides), or a developing solvent consisting of chloroform:methanol: 0.02% CaCl2=55:45:10 (for glycolipids). In the case of glycoproteins, analysis was carried out by SDS-polyacrylamide gel electrophoresis. The obtained radioactivities were visualized with a BAS2000 radio image analyzer (Fuji Film) and then quantified.

[2] = target: T2, PA-hST8Sia VI (human ST8Sia VI) (Homo sapiens, UniProt P61647, L267F); assay: Sialyltransferase activity of PA-hST8Sia VI toward acceptor substrates; conditions: incorporation with Fetuin taken as 100, substrate 0.5 mg/ml glycolipids, 1 mg/ml glycoproteins, monosaccharides and oligosaccharides
T2 construct: amino acids 68-398 in the case of human ST8Sia VI; signal peptide of mouse immunoglobulin IgM (N); made in house; host or cells: COS-7 cells, transient expression of pcDSA-hST8Sia VI; protein recovered from medium on IgG-Sepharose
T2 sequence (P61647 68-398 L267F): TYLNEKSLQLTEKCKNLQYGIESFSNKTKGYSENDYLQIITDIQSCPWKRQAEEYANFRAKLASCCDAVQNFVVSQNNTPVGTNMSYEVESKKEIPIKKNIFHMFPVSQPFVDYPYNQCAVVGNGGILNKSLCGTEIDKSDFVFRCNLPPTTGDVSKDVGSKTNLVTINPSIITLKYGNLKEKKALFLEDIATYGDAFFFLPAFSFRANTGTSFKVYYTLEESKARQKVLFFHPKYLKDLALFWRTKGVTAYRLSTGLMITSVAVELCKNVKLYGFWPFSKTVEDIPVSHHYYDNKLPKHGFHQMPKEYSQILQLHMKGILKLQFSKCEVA
Method: as §1

[3] = target: T3, PA-mST6Gal II (mouse ST6Gal II) (Mus musculus, UniProt Q76K27, R48S); assay: Sialyltransferase activity of PA-mST6Gal II toward acceptor substrates; conditions: for Relative rate (%) Mouse ST6Gal II: PA-mST6Gal II, incorporation with Galβ1,4GlcNAc taken as 100, 0.5 mg/ml glycolipids, 1 mg/ml glycoproteins and oligosaccharides
T3 construct: amino acids 31-524 in the case of mouse ST6Gal II; signal peptide of mouse immunoglobulin IgM (N); made in house; host or cells: COS-7 cells, transient expression of pcDSA-mST6Gal II; protein recovered from medium on IgG-Sepharose
T3 sequence (Q76K27 31-524 R48S): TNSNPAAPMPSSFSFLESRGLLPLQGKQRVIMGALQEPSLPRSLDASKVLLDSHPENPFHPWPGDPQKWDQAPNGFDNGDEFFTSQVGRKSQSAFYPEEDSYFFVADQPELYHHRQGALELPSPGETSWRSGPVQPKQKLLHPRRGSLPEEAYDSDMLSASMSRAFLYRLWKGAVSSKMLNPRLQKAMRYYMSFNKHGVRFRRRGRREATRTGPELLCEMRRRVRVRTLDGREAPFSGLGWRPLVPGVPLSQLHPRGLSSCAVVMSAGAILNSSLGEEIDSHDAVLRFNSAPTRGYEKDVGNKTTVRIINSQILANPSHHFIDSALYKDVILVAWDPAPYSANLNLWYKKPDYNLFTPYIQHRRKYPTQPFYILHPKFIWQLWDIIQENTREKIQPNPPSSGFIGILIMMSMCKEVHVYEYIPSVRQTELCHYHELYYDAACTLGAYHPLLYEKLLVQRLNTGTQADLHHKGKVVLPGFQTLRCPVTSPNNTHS
Method: (§2) Using each expression vector and lipofectamine (Invitrogen), transient expression was carried out in COS-7 cells (Kojima, N. et al. (1995) FEBS Lett. 360, 1-4). The proteins of the present invention secreted from the cells into which each expression vector had been introduced were named as PA-hST6Gal II (human) and PA-mST6Gal II (mouse). PA-hST6Gal II and PA-mST6Gal II were adsorbed to IgG-Sepharose (Amersham Pharmacia Biotech), and were then recovered from medium. Sialyltransferase activity was measured as follows according to the method of Lee et al. (Lee, Y.-C. et al. (1999) J Biol. Chem. 274, 11958-11967). A reaction mixture (10 μl) containing 50 mM MES buffer (pH 6.0), 1 mM MgCl2, 1 mM CaCl2, 0.5% Triton CF-54, 100 μM CMP-[^14C]-NeuAc, a substrate sugar chain (which was added at 0.5 mg/ml in the case of glycolipids, and at 1 mg/ml in the case of glycoproteins or oligosaccharides), and a PA-hST6Gal II or PA-mST6Gal II suspension, was incubated at 37° C. for 3 to 20 hours. Thereafter, in the case of glycolipids, the reaction product was purified with a C-18 column (Sep-Pak Vac 100 mg; Waters) and the purified product was used as a sample. In the case of oligosaccharides or glycoproteins, the reaction product was directly used as a sample. Thus, the obtained sample was subjected to analysis. In the case of oligosaccharides or glycolipids, the sample was spotted on a silica gel 60 HPTLC plate (Merck), and it was then developed with a developing solvent consisting of 1-propanol:ammonia water:water=6:1:2.5 (for oligosaccharides), or a developing solvent consisting of chloroform:methanol: 0.02% CaCl2=55:45:10 (for glycolipids). In the case of glycoproteins, analysis was carried out by SDS-polyacrylamide gel electrophoresis. The obtained radioactivities were visualized with a BAS2000 radio image analyzer (Fuji Film) and then quantified.

[4] = target: T4, PA-hST6Gal II (human ST6Gal II) (Homo sapiens, UniProt Q96JF0); assay: Sialyltransferase activity of PA-hST6Gal II toward acceptor substrates; conditions: for Relative rate (%) Human ST6Gal II: PA-hST6Gal II, incorporation with Galβ1,4GlcNAc taken as 100, 0.5 mg/ml glycolipids, 1 mg/ml glycoproteins and oligosaccharides
T4 construct: amino acids 33-529 in the case of human ST6Gal II; signal peptide of mouse immunoglobulin IgM (N); made in house; host or cells: COS-7 cells, transient expression of pcDSA-hST6Gal II; protein recovered from medium on IgG-Sepharose
T4 sequence (Q96JF0 33-529): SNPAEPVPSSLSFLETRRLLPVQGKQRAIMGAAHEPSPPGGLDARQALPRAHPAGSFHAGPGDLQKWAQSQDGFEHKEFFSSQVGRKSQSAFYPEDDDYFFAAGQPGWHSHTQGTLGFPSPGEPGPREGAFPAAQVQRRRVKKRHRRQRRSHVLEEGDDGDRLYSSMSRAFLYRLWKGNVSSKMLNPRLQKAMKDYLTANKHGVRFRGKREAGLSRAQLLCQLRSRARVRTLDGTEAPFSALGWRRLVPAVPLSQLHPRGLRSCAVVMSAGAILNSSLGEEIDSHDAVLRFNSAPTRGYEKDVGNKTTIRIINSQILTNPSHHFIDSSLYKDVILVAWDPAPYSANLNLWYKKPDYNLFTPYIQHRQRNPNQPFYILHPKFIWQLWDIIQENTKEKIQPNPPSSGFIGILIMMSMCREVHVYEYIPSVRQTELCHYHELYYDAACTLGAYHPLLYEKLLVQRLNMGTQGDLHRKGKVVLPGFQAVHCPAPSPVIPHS
Method: as §2

human ST6Gal I = target: T5, human ST6Gal I (Homo sapiens, UniProt P15907); assay: Sialyltransferase activity of human ST6Gal I toward acceptor substrates (comparison); conditions: for Relative rate (%) Human ST6Gal I: incorporation with Galβ1,4GlcNAc taken as 100, 0.5 mg/ml glycolipids, 1 mg/ml glycoproteins and oligosaccharides
T5 sequence (P15907 1-406): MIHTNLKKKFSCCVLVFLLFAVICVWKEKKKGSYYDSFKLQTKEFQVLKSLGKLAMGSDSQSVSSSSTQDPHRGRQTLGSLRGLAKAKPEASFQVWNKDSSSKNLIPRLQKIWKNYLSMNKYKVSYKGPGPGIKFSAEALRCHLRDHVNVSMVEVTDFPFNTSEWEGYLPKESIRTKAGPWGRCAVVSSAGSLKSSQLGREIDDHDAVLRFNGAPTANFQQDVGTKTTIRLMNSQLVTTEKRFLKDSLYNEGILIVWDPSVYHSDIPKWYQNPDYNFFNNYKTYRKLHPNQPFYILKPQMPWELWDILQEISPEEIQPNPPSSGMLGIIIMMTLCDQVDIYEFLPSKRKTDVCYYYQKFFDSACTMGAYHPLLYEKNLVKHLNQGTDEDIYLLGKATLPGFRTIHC
Method: as §2
In contrast, there were no glycolipids, which could be substrates of both the enzymes, as far as the inventors have examined. The activity of human ST6Gal I on oligosaccharides was also examined for comparison. […] (FIG. 10).

## CC(=O)NC1C(O)CC(OCC2OC(OC3C(CO)OC(O)C(O)C3O)C(O)C(O)C2O)(C(=O)O)OC1C(O)C(O)CO (stereo not drawn) [6′-Sialyllactose, NeuAcα2,6Galβ1,4Glc]
[1]
  Relative rate (%) Mouse ST8SiaVI: 91.5%
[2]
  Relative rate (%) Human ST8Sia VI: 10.7%

## Galβ1,4GlcNAc [Type II]
[3]; Mouse ST6Gal II, the value set as 100
  incorporation obtained with Galβ1,4GlcNAc: *, 2.74 pmol/h/ml medium.
[3]
  Relative rate (%) Mouse ST6Gal II: 100* %
[4]; Human ST6Gal II, the value set as 100
  incorporation obtained with Galβ1,4GlcNAc: **, 1.03 pmol/h/ml medium.
Human ST6Gal I; Human ST6Gal I, the value set as 100
  incorporation obtained with Galβ1,4GlcNAc: ***, 8.14 pmol/h/ml medium.
Human ST6Gal I
  Relative rate (%) Human ST6Gal I: 100*** %

## Galβ1,4GlcNAcβ1,3Galβ1,4Glcβ1-Cer [Paragloboside]
[3]
  Relative rate (%) Mouse ST6Gal II: 0%
[4]
  Relative rate (%) Human ST6Gal II: 0%
Human ST6Gal I
  Relative rate (%) Human ST6Gal I: 0.3%

## Galβ1,3GlcNAc [Type I]
[3]
  Relative rate (%) Mouse ST6Gal II: 0%
[4]
  Relative rate (%) Human ST6Gal II: 0%
Human ST6Gal I
  Relative rate (%) Human ST6Gal I: 4.2%

## NeuAcα2,8NeuAcα2,8Galβ1,3GalNAcβ1,4(NeuAcα2,8NeuAcα2,3)Galβ1,4Glcβ1-Cer [GQ1b]
[1]
  Relative rate (%) Mouse ST8SiaVI: 0%
[2]
  Relative rate (%) Human ST8Sia VI: 0%

## CC(=O)N[C@H]1[C@H]([C@H](O)[C@H](O)CO)O[C@@](O[C@H]2[C@@H](O)[C@@H](CO)O[C@@H](O[C@H]3[C@H](O)[C@@H](O)C(O)O[C@@H]3CO)[C@@H]2O)(C(=O)O)C[C@@H]1O (stereo partly drawn) [3′-Sialyllactose, NeuAcα2,3Galβ1,4Glc]
[1]
  Relative rate (%) Mouse ST8SiaVI: 629%
[2]
  Relative rate (%) Human ST8Sia VI: 69.9%

## CC(=O)N[C@H]1[C@H](O[C@H]2[C@@H](O)[C@@H](CO)O[C@@H](O[C@H]3[C@H](O)[C@@H](O)C(O)O[C@@H]3CO)[C@@H]2O)O[C@H](CO)[C@@H](O[C@@H]2O[C@H](CO)[C@H](O)[C@H](O)[C@H]2O)[C@@H]1O (stereo partly drawn) [Lacto-N-neotetraose, Galβ1,4GlcNAcβ1,3Galβ1,4Glc]
[3]
  Relative rate (%) Mouse ST6Gal II: 128.8%
[4]
  Relative rate (%) Human ST6Gal II: 86.2%
Human ST6Gal I
  Relative rate (%) Human ST6Gal I: 101.6%

## Galβ1,3GalNAcβ1,4Galβ1,4Glcβ1-Cer [GA1]
[3]
  Relative rate (%) Mouse ST6Gal II: 0%
[4]
  Relative rate (%) Human ST6Gal II: 0%
Human ST6Gal I
  Relative rate (%) Human ST6Gal I: 0%

## Galβ1,3GlcNAcβ1,3Galβ1,4Glc [Lacto-N-tetraose]
[3]
  Relative rate (%) Mouse ST6Gal II: 0%
[4]
  Relative rate (%) Human ST6Gal II: 0%
Human ST6Gal I
  activity of human ST6Gal I on the substrate (in words): showed activity
  Relative rate (%) Human ST6Gal I: 31.1%
